Data reported in ChEMBL document CHEMBL1201862, “PubChem BioAssay data set” (2004).
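Test compounds were applied to cells in 96-well plates for 48 hours at 5 doses. Here, GI50 denotes the concentration required for 50% inhibition of growth.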 Calls of active or inactive are those of the source. No stated cut-off is given here; in the data, active = GI50 up to about 1.1 µM and inactive = higher.

Columns and labels:
Experiment in all cases: NCI-60 cell line screen, 48 h
NCI-H460 = tested on: NCI-H460
NCI-H226 = tested on: NCI-H226
OVCAR-4 = tested on: OVCAR-4
A498 = tested on: A498
OVCAR-5 = tested on: OVCAR-5
IGROV-1 = tested on: IGROV-1
HCT-15 = tested on: HCT-15
COLO 205 = tested on: COLO 205
SK-OV-3 = tested on: SK-OV-3
RPMI-8226 = tested on: RPMI-8226
SN12C = tested on: SN12C
TK-10 = tested on: TK-10
HT-29 = tested on: HT-29
U-251 = tested on: U-251
EKVX = tested on: EKVX
RXF 393 = tested on: RXF 393
SK-MEL-2 = tested on: SK-MEL-2

Row | SMILES | GI50 (NCI-H460) | GI50 (NCI-H226) | GI50 (OVCAR-4) | GI50 (A498) | GI50 (OVCAR-5) | GI50 (IGROV-1) | GI50 (HCT-15) | GI50 (COLO 205) | GI50 (SK-OV-3) | GI50 (RPMI-8226) | GI50 (SN12C) | GI50 (TK-10) | GI50 (HT-29) | GI50 (U-251) | GI50 (EKVX) | GI50 (RXF 393) | GI50 (SK-MEL-2)
1 | CCOC(=O)C12CC1(C(=O)OCC)C1CCC2C1 (configuration not stated) | > 100 µM (inactive) | > 100 µM (inactive) | > 100 µM (inactive) | > 100 µM (inactive) | > 100 µM (inactive) | > 100 µM (inactive) | > 100 µM | > 100 µM (inactive) | > 100 µM (inactive) | > 100 µM (inactive) | > 100 µM (inactive) | > 100 µM (inactive) | > 100 µM (inactive) | > 100 µM (inactive) |  |  | 
2 | C/C(=C1/N=C(c2cc([N+](=O)[O-])ccc2Cl)N(C2=CC=C(Cl)CC2)C1=O)c1cc2ccccc2oc1=O | 28 µM (inactive) | 29 µM (inactive) | 24.4 µM (inactive) | 23.4 µM (inactive) | 41.5 µM (inactive) | 27.6 µM (inactive) |  | 47.6 µM (inactive) | > 100 µM (inactive) | 32.4 µM (inactive) | 23.4 µM (inactive) |  | 63.4 µM (inactive) | 49.2 µM (inactive) | > 100 µM (inactive) |  | 
3 | Cc1cc(O)nc(NN2C(Cl)C(=O)C2c2cccc(O)c2)n1 (configuration not stated) | 4.82 µM (inactive) |  | > 100 µM (inactive) |  | 24.9 µM (inactive) | 4.8 µM (inactive) | 5.74 µM | 39.4 µM (inactive) |  | 9.59 µM (inactive) | 6.31 µM (inactive) | 42.5 µM (inactive) | 41.7 µM (inactive) | 3.05 µM (inactive) | 17.9 µM (inactive) | 3.48 µM (inactive) | 4.43 µM (inactive)
4 | O=c1c2ccccc2sc2nc(O)nn12 | > 100 µM (inactive) | > 100 µM (inactive) | > 100 µM (inactive) |  | > 100 µM (inactive) | > 100 µM (inactive) | > 100 µM | > 100 µM (inactive) | > 100 µM (inactive) | > 100 µM (inactive) | > 100 µM (inactive) | > 100 µM (inactive) | > 100 µM (inactive) | > 100 µM (inactive) | > 100 µM (inactive) | > 100 µM (inactive) | > 100 µM (inactive)
5 | COc1ccc(/C(=N\NC(=O)NN)C(c2ccc(OC)cc2)C2(O)C(=O)Nc3c(Cl)cc(Cl)cc32)cc1 (configuration not stated) | > 100 µM (inactive) | > 100 µM (inactive) | > 100 µM (inactive) |  | > 100 µM (inactive) | > 100 µM (inactive) |  | > 100 µM (inactive) |  | 56.8 µM (inactive) | > 100 µM (inactive) | > 100 µM (inactive) | > 100 µM (inactive) | > 100 µM (inactive) | > 100 µM (inactive) | > 100 µM (inactive) | > 100 µM (inactive)
6 | Cc1cccc2c1C(=O)OC2(c1cccc2ccccc12)c1cccc2ccccc12 | > 100 µM (inactive) | > 100 µM (inactive) | 89.9 µM (inactive) | > 100 µM (inactive) | > 100 µM (inactive) | > 100 µM (inactive) | > 100 µM | > 100 µM (inactive) | > 100 µM (inactive) |  | > 100 µM (inactive) | > 100 µM (inactive) | > 100 µM (inactive) | 70.1 µM (inactive) | > 100 µM (inactive) | 27.2 µM (inactive) | > 100 µM (inactive)
7 | CC(=O)OCC1OC(Nc2nc(O)n(C)c(=O)c2-c2csc(N)n2)C(OC(C)=O)C(OC(C)=O)C1OC(C)=O (configuration not stated) | > 100 µM (inactive) | > 100 µM (inactive) | > 100 µM (inactive) | > 100 µM (inactive) | > 100 µM (inactive) | > 100 µM (inactive) | > 100 µM | > 100 µM (inactive) | > 100 µM (inactive) | > 100 µM (inactive) | > 100 µM (inactive) | > 100 µM (inactive) | > 100 µM (inactive) | > 100 µM (inactive) |  |  | > 100 µM (inactive)
